Measurements reported in patent US10758619B2, “Controlled release mucoadhesive systems” (THE OHIO STATE UNIVERSITY, priority 2010, dated 2020).
Converted amounts (≈) assume the structure as drawn.

Assays:
[1] = Solubility of fenretinide in simulated saliva; type: physicochemical; conditions: pH 6.8
Description: The extent of solubility enhancement of fenretinide by numerous solubilizers (bile salts, surfactants, hydrophilic polymers, and co-solvents) was studied by determining the solubility in simulated saliva in the presence of 0.5, 1, 2, and 5% w/v solubilizers. Briefly, an excess amount of fenretinide was added into separate amber color ampoules containing 1-mL 0.5, 1, 2, and 5% w/v solutions of solubilizers (prepared using N2-purged simulated saliva) and sealed under vacuum in order remove the oxygen from the head-space. The ampoules were then placed in an incubator maintained at 37° C. and shaken at 240 RPM for 72 h (this duration was determined to be sufficient to reach the equilibrium). After 72 h, the ampoules were broken, mixture was passed through 0.45 μm PVDF filter units (Millipore, USA), diluted suitably with respective solubilizer solution, and the amount of fenretinide solubilized in simulated saliva was determined by HPLC.

[2] = Water solubility of fenretinide; type: physicochemical
[3] = tested on: cellular terminal differentiation and apoptosis; conditions: cited from earlier work
[4] = cited from earlier work
[5] = Fenretinide solubility in bovine serum; type: physicochemical; conditions: for time required to achieve equilibrium with bovine serum: 37° C.
Description: Excessive amount of fenretinide was added into fetal bovine serum in polypropylene tubes. The sample was placed on a mechanical circulator and incubated at 37 C avoiding light. At every 24 hours (until fenretinide reached saturation in serum), the sample was centrifuged at 8000 rpm for 10 minutes. 0.2 ml sample was drawn from the supernatant. This volume was immediately replaced using blank serum. The tubes were shook to mix the supernatant and sediment, and then re-placed on the mechanical circulator and incubated at 37 C. The fenretinide concentration in the supernatant was measured by a HPLC assay after extraction using acetonitrile.
A known quantity (0.9, 2.26, 3.97, 8.03, and 20.5 mg) of fenretinide was added to polypropylene tubes containing 15 mL fetal bovine serum. The samples were incubated at 37° C. under constant rotation using a rigged rotator and protection from light. At every 24 h till 7 days, the samples were centrifuged at 8000 rpm for 10 minutes and 200 μl of supernatant was withdrawn. Withdrawn serum sample was replaced with fresh serum sample, mixed properly, and incubated again under similar conditions. To the withdrawn sample (200 μl), 2 mL of acetonitrile was added, agitated overnight on a mechanical shaker with protection from light, passed through 0.45 μm PVDF filter units, and analyzed by HPLC.

solubility in simulated saliva [1]: insoluble
water solubility [2]: below HPLC detection limit
time required to achieve equilibrium with bovine serum ([5]; 0.9 mg fenretinide in 15 mL serum): 7 days
time required to achieve equilibrium with bovine serum ([5]; 8.03 mg fenretinide in 15 mL serum): 4 days
solubility of fenretinide in bovine serum ([5]; fetal bovine serum, 37° C. (Example 3, FIG. 10A)): 21 µg/mL
solubility at 6 days ([5]; plasma or biological fluid, thermodynamic from solid, fetal bovine serum, 37 C, after 6 days incubation (Example 2)): 20.9 ± 1.02 µg/mL (≈ 53.5 µM)
solubility ([5]; plasma or biological fluid, thermodynamic from solid, fetal bovine serum, 37° C. (Example 3, FIG. 10A)): 21 ± 1 µg/mL (≈ 53.6 µM)
Compound: CC1=C(/C=C/C(C)=C/C=C/C(C)=C/C(=O)Nc2ccc(O)cc2)C(C)(C)CCC1 [Fenretinide, 4-hydroxy(phenyl)retinamide]
in vitro concentration inducing apoptosis [3]: > 5 µM
in vitro concentration inducing cellular terminal differentiation [3]: < 3 µM
intrinsic aqueous solubility [4]: 0.0098 µg/mL
